The record followed here is patent US20090042849A1, “Phosphorylation of 5-lipoxygenase at ser523 and uses thereof” (priority 2006, published 2009).

One assay deals with 5LO mRNA. Kind of assay: rtPCR of 5LO mRNA in adult rat cardiomyocytes. The class given is cell-based. As to the method: (§1) Cardiac myocytes were isolated from adult Sprague-Dawley rats (250-300 g, male). Animals were heparinized (1,000-2,000 units i.p.) 5 min before being anesthetized with ketamine (100 mg/kg) and xylazine (10 mg/kg), and the hearts were removed and placed in ice-cold heart media solution (in mmol/l: 112 NaCl, 5.4 KCl, 1 MgCl2, 9 NaH2PO4, and 11.1 D-glucose; supplemented with 10 HEPES, 30 taurine, 2 DL-carnitine, and 2 creatine, pH. 7.4). The hearts were perfused retrogradely in a Langendorff apparatus with Ca^2+-free heart media for 5 min at 5 ml/min at 37° C., followed by perfusion with Ca^2+-free heart media containing collagenase II, 210 U/mg (Worthington, Lakewood, N.J.) for 20 min. After perfusion, both ventricles were removed from the heart and minced in collagenase II-containing heart media for 10-15 min. The cell solution was then washed several times to remove collagenase II and reexposed to 1.2 mM Ca2^+ over 25 min to produce Ca2^+-tolerant cardiac myocytes. Myocytes were then plated in 4% FBS on laminin (2 μg/cm^2)-coated plates for 1 h and incubated at 37° C. in 5% CO2 for 12-24 h before experiments (21). Cells were incubated with 1) vehicle (0.07% ethanol); 2) PIO (10 μM)+ATV (10 μM); 3) H-89 (0.1 μM); or 4) PIO+ATV+H-89 for 12 hours. The supernatants were collected directly for LTB4 analyses by ELISA and the cells were harvested for immunoblotting. In addition, cells were plated in 8-chamber slides, received the same treatment as above and were used for immunohistochemical staining.
Equal amounts of total cellular RNA were reverse-transcribed with oligo(dT) primer by use of AMV Reverse Transcriptase (Applied Biosystems). Transcribed cDNAs (40 ng) were used for Real Time PCR with specific primers: rat ALOX5. […] The Ct (threshold cycle) is defined as the number of cycles required for the fluorescence signal to exceed the detection threshold. Expression of the ALOX5 relative to the GAPDH was calculated as the different between the threshold values of these two genes. […]

Assay [1] has as its system 5LO interaction with COX2 / cPLA2. Briefly: co-immunoprecipitation of 5LO with COX2 and cPLA2 in rat hearts. Format: in vivo. As to the method: Rats received: 1) PIO (10 mg/kg/d); 2) ATV (10 mg/kg/d); 3) PIO (10 mg/kg/d)+H89 (20 mg/kg); 4) ATV (10 mg/kg/d)+H89 (20 mg/kg); 5) H89 (20 mg/kg) or 6) water alone (control). PIO and ATV were suspended in water and administered by gastric gavage once daily for 3 days; H-89 was dissolved in DMSO (final concentration 5% v/v) and injected intraperitoneally on the third day. Rats in groups 5 and 6 received water by gastric gavage once daily for 3 days. Rats in groups 1, 2 and 6 received intraperitoneal inkection of DMSO 5%. Sixteen hours after the injection, rats were euthanized and the hearts explanted for further analyses. In another experiment, rats received 3-day pretreatment with: 1) water (sham); 2) PIO (10 mg/kg/d); 3) ATV (10 mg/kg/d); 4) PIO (10 mg/kg/d)+ATV (10 mg/kg/d); or 5) LPS (10 mg/kg).
For co-immunoprecipitation, myocardial cytosolic, membranous and nuclear fractions (500 μg) were incubated with anti-5LO antibodies for 4 h followed by overnight incubation at 4° C. with Protein-A-Agarose. The agarose beads were collected by centrifugation and SDS/PAGE Western immunoblotting was performed with the supernatant fraction. The anti-5LO precipitates were subjected to immunoblotting with anti-COX2 or anti-cPLA2 antibodies.

Another assay deals with COX2. Kind of assay: immunofluorescence of COX2 in adult rat cardiac myocytes. The class given is cell-based. As to the method: as §1, with “Myocytes were then plated in 4% FBS on laminin (2 μg/cm^2)-coated plates for 1 h and incubated at 37° C. in 5% CO2 for 12-24 h before experiments (21). Cells were incubated with 1) vehicle (0.07% ethanol); 2) PIO (10 μM)+ATV (10 μM); 3) H-89 (0.1 μM); or 4) PIO+ATV+H-89 for 12 hours. The supernatants were collected directly for LTB4 analyses by ELISA and the cells were harvested for immunoblotting. In addition, cells were plated in 8-chamber slides, received the same treatment as above and were used for immunohistochemical staining.” left out
(§2) Immunofluorescent labeling was performed on paraffin sections (5-μm) of 4% formaldehyde-fixed rat cardiac tissue, as described previously (22). […] All the slides were viewed under an Olympus BX51 microscope [images recorded by a DP70 Digital camera (Olympus Optical Co., Ltd., Tokyo, Japan)] or confocal microscope (Bio-Rad 2100 (Hercules, Calif.).

The test system of another assay is 15ELXA. Kind of assay: 15ELXA levels in adult rat cardiac myocytes (ELISA). The class given is cell-based. Background: In an ELISA, binding on a coated surface is turned into a signal by an enzyme label.
The test system of another assay is 5LO (P-5LO). Briefly: immunoblotting of 5LO and P-5LO in adult rat cardiac myocyte cultures. The settings on record: H-89 0.1 μM with PIO+ATV. The class given is cell-based. On the procedure:
(§3) Cardiac myocytes were isolated from adult Sprague-Dawley rats (250-300 g, male). Animals were heparinized (1,000-2,000 units i.p.) 5 min before being anesthetized with ketamine (100 mg/kg) and xylazine (10 mg/kg), and the hearts were removed and placed in ice-cold heart media solution (in mmol/l: 112 NaCl, 5.4 KCl, 1 MgCl2, 9 NaH2PO4, and 11.1 D-glucose; supplemented with 10 HEPES, 30 taurine, 2 DL-carnitine, and 2 creatine, pH. 7.4). The hearts were perfused retrogradely in a Langendorff apparatus with Ca^2+-free heart media for 5 min at 5 ml/min at 37° C., followed by perfusion with Ca^2+-free heart media containing collagenase II, 210 U/mg (Worthington, Lakewood, N.J.) for 20 min. […]
The hearts were rapidly explanted, rinsed in cold PBS (pH 7.4), containing 0.16 mg/ml heparin to remove red blood cells and clots, frozen in liquid nitrogen and stored at −70° C. […] The supernatant was collected and the total protein concentration was determined using the Lowry protein assay. […] The protein samples with loading buffer were run in 4-20% Tri-HCl Ready Gel at a 100V for 2 h until the desired molecular weight bands were separated. […] The protein signals were quantified by an image-scanning-densitometer and the strength of each protein signal was normalized to the corresponding b-actin stain signal. Data are expressed as a ratio between the protein and the corresponding b-actin signal density.
(In general: A western blot detects proteins with antibodies after separation by electrophoresis.)

In another assay the test system is 5LO. Kind of assay: immunofluorescence of 5LO in adult rat cardiomyocyte cultures. The class given is cell-based. To be noted: PIO 10 μM, ATV 10 μM, H-89 0.1 μM, 12 hours. As to the method:
as §3, with “min. After perfusion, both ventricles were removed from the heart and minced in collagenase II-containing heart media for 10-15 min. The cell solution was then washed several times to remove collagenase II and reexposed to 1.2 mM Ca2^+ over 25 min to produce Ca2^+-tolerant cardiac myocytes.” for “min.”
as §2

Setting [2] is: PIO 10 μM, ATV 10 μM, H-89 0.1 μM, 12 hours.

Entries after “also recorded” stand apart in the source; their conditions may differ.

In the case of `CC(C)c1c(C(=O)Nc2ccccc2)c(-c2ccccc2)c(-c2ccc(F)cc2)n1CCC(O)CC(O)CC(=O)O` (stereo not shown) [ATV, 7-[2-(4-fluorophenyl)-5-(1-methylethyl)-3-phenyl-4-(phenylcarbamoyl)-1H-pyrrol-1-yl]-3,5-dihydroxy-heptanoic acid], the “5LO mRNA levels in the cardiomyocytes” value in the assay with 5LO mRNA was “did not affect”. Moreover, in assay [1] (cytosolic and membranous fractions), the “fraction in which the co-immunoprecipitation with 5LO occurred” value is reported as “in the cytosolic, but not the membranous fraction; also recorded: only in the cytosolic fraction”. Moreover, in assay [1] (whole cell lysate), the “co-immunoprecipitation of COX2 or cPLA2 with 5LO” value was 5LO precipitated with COX2 and COX2, but not cPLA2, precipitated with 5LO.
Regarding `O=S(=O)(NCCNC/C=C/c1ccc(Br)cc1)c1cccc2cnccc12` [H-89], in the assay with 5LO mRNA, the “5LO mRNA levels in the cardiomyocytes” value is reported as “did not affect”. The “effect on the increased expression of COX2 by PIO+ATV” value with COX2 (H-89 0.1 μM with PIO+ATV) is “did not affect; also recorded: no effect”. The COX2 expression result with COX2 (setting [2]) is reported as “no effect”. Also, the “effect on the PIO+ATV augmentation of 15ELXA levels” value in the assay with 15ELXA (H-89 0.1 μM with PIO+ATV) is reported as “attenuated”. The “levels of 15ELXA” value in the assay with 15ELXA (setting [2]) was “no effect”. Also, the “effect on the 5LO phosphorylation by PIO+ATV” value in the assay with 5LO (P-5LO) is reported as “almost completely blocked”. Besides, the “5LO expression and localization in cardiomyocytes” value in the assay on 5LO is reported as “no effect”.
